According to ChEMBL document CHEMBL1201862, “PubChem BioAssay data set” (2004):
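A five-concentration, 48-hour dose response in 96-well plates underlies each endpoint, interpolated linearly between surrounding concentrations. GI50: concentration for 50% inhibition of growth.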 The source made the active and inactive calls. No stated cut-off is given here; in the data, active = GI50 up to about 1.1 µM and inactive = higher.

Tests used:
Assay in all cases: DTP human tumour cell line panel, 48 h
NCI/ADR-RES = tested on: NCI/ADR-RES
OVCAR-4 = tested on: OVCAR-4
SF-539 = tested on: SF-539
LOX IMVI = tested on: LOX IMVI
UO-31 = tested on: UO-31
OVCAR-5 = tested on: OVCAR-5
HOP-62 = tested on: HOP-62
EKVX = tested on: EKVX
SK-MEL-2 = tested on: SK-MEL-2
A549 = tested on: A549
NCI-H226 = tested on: NCI-H226
SNB-19 = tested on: SNB-19
TK-10 = tested on: TK-10
NCI-H522 = tested on: NCI-H522
MDA-MB-231 = tested on: MDA-MB-231
DU-145 = tested on: DU-145
RXF 393 = tested on: RXF 393
HCC 2998 = tested on: HCC 2998
HT-29 = tested on: HT-29
BT-549 = tested on: BT-549
COLO 205 = tested on: COLO 205
SK-MEL-28 = tested on: SK-MEL-28
NCI-H460 = tested on: NCI-H460
MDA-MB-435 = tested on: MDA-MB-435
Malme-3M = tested on: Malme-3M
SN12C = tested on: SN12C
OVCAR-3 = tested on: OVCAR-3
SNB-75 = tested on: SNB-75
HCT-15 = tested on: HCT-15
T47D = tested on: T47D
OVCAR-8 = tested on: OVCAR-8
MDA-N = tested on: MDA-N
IGROV-1 = tested on: IGROV-1
M14 = tested on: M14
SK-MEL-5 = tested on: SK-MEL-5
SW-620 = tested on: SW-620
UACC-257 = tested on: UACC-257
786-0 = tested on: 786-0
KM12 = tested on: KM12
MOLT-4 = tested on: MOLT-4
HL-60 = tested on: HL-60
MCF7 = tested on: MCF7
SR = tested on: SR
SF-268 = tested on: SF-268
A498 = tested on: A498
PC-3 = tested on: PC-3
HOP-92 = tested on: HOP-92
HCT-116 = tested on: HCT-116
SK-OV-3 = tested on: SK-OV-3
CCRF-CEM = tested on: CCRF-CEM
U-251 = tested on: U-251
UACC-62 = tested on: UACC-62
K562 = tested on: K562
NCI-H23 = tested on: NCI-H23
Hs-578T = tested on: Hs-578T
RPMI-8226 = tested on: RPMI-8226
CAKI-1 = tested on: CAKI-1
ACHN = tested on: ACHN
SF-295 = tested on: SF-295

SMILES: COc1cc(C2c3cc4c(cc3OC(NNS(=O)(=O)c3ccc(C)cc3)C2C)OCO4)cc(OC)c1OC (stereo not drawn)
- GI50 (NCI/ADR-RES): 3.24 µM (inactive)
- GI50 (OVCAR-4): 7.59 µM (inactive)
- GI50 (SF-539): 0.984 µM (active)
- GI50 (LOX IMVI): 1.87 µM (inactive)
- GI50 (UO-31): 5.14 µM (inactive)
- GI50 (OVCAR-5): 9.14 µM (inactive)
- GI50 (HOP-62): 0.817 µM (active)
- GI50 (EKVX): 2.05 µM (inactive)
- GI50 (SK-MEL-2): 0.984 µM (active)
- GI50 (A549): 2.6 µM (inactive)
- GI50 (NCI-H226): 3.14 µM (inactive)
- GI50 (SNB-19): 3.58 µM (inactive)
- GI50 (TK-10): 6.7 µM (inactive)
- GI50 (NCI-H522): 1.25 µM (inactive)
- GI50 (MDA-MB-231): 4.24 µM (inactive)
- GI50 (DU-145): 3.83 µM (inactive)
- GI50 (RXF 393): 1.76 µM (inactive)
- GI50 (HCC 2998): 2.94 µM (inactive)
- GI50 (HT-29): 1.34 µM (inactive)
- GI50 (BT-549): 3.32 µM (inactive)
- GI50 (COLO 205): 2.81 µM (inactive)
- GI50 (SK-MEL-28): 2.94 µM (inactive)
- GI50 (NCI-H460): 2.13 µM (inactive)
- GI50 (MDA-MB-435): 0.294 µM (active)
- GI50 (Malme-3M): 3.04 µM (inactive)
- GI50 (SN12C): 4.21 µM (inactive)
- GI50 (OVCAR-3): 1.26 µM (inactive)
- GI50 (SNB-75): 3.02 µM (inactive)
- GI50 (HCT-15): 1.29 µM
- GI50 (T47D): 3.48 µM (inactive)
- GI50 (OVCAR-8): 8.91 µM (inactive)
- GI50 (MDA-N): 0.289 µM (active)
- GI50 (IGROV-1): 2.68 µM (inactive)
- GI50 (M14): 0.776 µM (active)
- GI50 (SK-MEL-5): 0.883 µM (active)
- GI50 (SW-620): 1.01 µM (active)
- GI50 (UACC-257): 3.21 µM (inactive)
- GI50 (786-0): 7.76 µM (inactive)
- GI50 (KM12): 1.26 µM (inactive)
- GI50 (MOLT-4): 1.89 µM (inactive)
- GI50 (HL-60): 0.5 µM (active)
- GI50 (MCF7): 1.48 µM (inactive)
- GI50 (SR): 0.839 µM (active)
- GI50 (SF-268): 3.95 µM (inactive)
- GI50 (A498): 1.26 µM (inactive)
- GI50 (PC-3): 1.28 µM (inactive)
- GI50 (HOP-92): 2 µM (inactive)
- GI50 (HCT-116): 1.29 µM (inactive)
- GI50 (SK-OV-3): 4.13 µM (inactive)
- GI50 (CCRF-CEM): 1.01 µM (active)
- GI50 (U-251): 2.14 µM (inactive)
- GI50 (UACC-62): 1.36 µM (inactive)
- GI50 (K562): 0.55 µM (active)
- GI50 (NCI-H23): 4.8 µM (inactive)
- GI50 (Hs-578T): 1.26 µM (inactive)
- GI50 (RPMI-8226): 2.08 µM (inactive)
- GI50 (CAKI-1): 1.68 µM (inactive)
- GI50 (ACHN): 3 µM (inactive)
- GI50 (SF-295): 0.989 µM (active)

SMILES: CN(CCc1ccc(Cl)c(Cl)c1)CCN(C)CCN1CCCC1
- GI50 (NCI/ADR-RES): 25.4 µM (inactive)
- GI50 (OVCAR-4): 28.5 µM (inactive)
- GI50 (SF-539): 4.08 µM (inactive)
- GI50 (LOX IMVI): 4.76 µM (inactive)
- GI50 (UO-31): 5.15 µM (inactive)
- GI50 (OVCAR-5): 18.6 µM (inactive)
- GI50 (HOP-62): 15.1 µM (inactive)
- GI50 (EKVX): 16.6 µM (inactive)
- GI50 (SK-MEL-2): 3.33 µM (inactive)
- GI50 (A549): 10.5 µM (inactive)
- GI50 (NCI-H226): 20 µM (inactive)
- GI50 (SNB-19): 17.4 µM (inactive)
- GI50 (TK-10): 13.3 µM (inactive)
- GI50 (NCI-H522): 6.64 µM (inactive)
- GI50 (MDA-MB-231): 8.99 µM (inactive)
- GI50 (DU-145): 25.6 µM (inactive)
- GI50 (RXF 393): 10 µM (inactive)
- GI50 (HCC 2998): 1.96 µM (inactive)
- GI50 (HT-29): 2.38 µM (inactive)
- GI50 (BT-549): 16.7 µM (inactive)
- GI50 (COLO 205): 2.23 µM (inactive)
- GI50 (SK-MEL-28): 1.64 µM (inactive)
- GI50 (NCI-H460): 8.93 µM (inactive)
- GI50 (MDA-MB-435): 2.02 µM (inactive)
- GI50 (Malme-3M): 5.02 µM (inactive)
- GI50 (SN12C): 15.7 µM (inactive)
- GI50 (OVCAR-3): 23.3 µM (inactive)
- GI50 (SNB-75): 14.9 µM (inactive)
- GI50 (HCT-15): 14.5 µM
- GI50 (T47D): 19.2 µM (inactive)
- GI50 (OVCAR-8): 21.7 µM (inactive)
- GI50 (MDA-N): 1.79 µM (inactive)
- GI50 (IGROV-1): 17.7 µM (inactive)
- GI50 (M14): 4.86 µM (inactive)
- GI50 (SK-MEL-5): 2.51 µM (inactive)
- GI50 (SW-620): 12.1 µM (inactive)
- GI50 (UACC-257): 2.36 µM (inactive)
- GI50 (786-0): 8.99 µM (inactive)
- GI50 (KM12): 10.9 µM (inactive)
- GI50 (MOLT-4): 3.6 µM (inactive)
- GI50 (HL-60): 13.4 µM (inactive)
- GI50 (MCF7): 12.1 µM (inactive)
- GI50 (SR): 4.84 µM (inactive)
- GI50 (SF-268): 6.5 µM (inactive)
- GI50 (A498): 13.1 µM (inactive)
- GI50 (PC-3): 14.5 µM (inactive)
- GI50 (HOP-92): 3.66 µM (inactive)
- GI50 (HCT-116): 5.62 µM (inactive)
- GI50 (SK-OV-3): 21.2 µM (inactive)
- GI50 (CCRF-CEM): 3.72 µM (inactive)
- GI50 (U-251): 10.4 µM (inactive)
- GI50 (UACC-62): 1.98 µM (inactive)
- GI50 (K562): 2.25 µM (inactive)
- GI50 (NCI-H23): 14.2 µM (inactive)
- GI50 (Hs-578T): 17.5 µM (inactive)
- GI50 (RPMI-8226): 2.86 µM (inactive)
- GI50 (CAKI-1): 15.2 µM (inactive)
- GI50 (ACHN): 21.2 µM (inactive)
- GI50 (SF-295): 16.5 µM (inactive)
